According to ChEMBL document CHEMBL1201862, “PubChem BioAssay data set” (2004):
Calls of active or inactive are those of the source.

How the values were obtained:
[1] = biological target: T1, Short transient receptor potential channel 4 (Mus musculus, UniProt Q9QUQ5); assay: block of DAMGO-driven TRPC4 calcium entry – cell-based, HEK293 TRPC4/mu-opioid, Fluo-4 calcium, dose response (AID 434942); assay type: functional;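 also: potency of inhibitors blocking the TRPC4 calcium response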
T1 sequence (Q9QUQ5 whole entry): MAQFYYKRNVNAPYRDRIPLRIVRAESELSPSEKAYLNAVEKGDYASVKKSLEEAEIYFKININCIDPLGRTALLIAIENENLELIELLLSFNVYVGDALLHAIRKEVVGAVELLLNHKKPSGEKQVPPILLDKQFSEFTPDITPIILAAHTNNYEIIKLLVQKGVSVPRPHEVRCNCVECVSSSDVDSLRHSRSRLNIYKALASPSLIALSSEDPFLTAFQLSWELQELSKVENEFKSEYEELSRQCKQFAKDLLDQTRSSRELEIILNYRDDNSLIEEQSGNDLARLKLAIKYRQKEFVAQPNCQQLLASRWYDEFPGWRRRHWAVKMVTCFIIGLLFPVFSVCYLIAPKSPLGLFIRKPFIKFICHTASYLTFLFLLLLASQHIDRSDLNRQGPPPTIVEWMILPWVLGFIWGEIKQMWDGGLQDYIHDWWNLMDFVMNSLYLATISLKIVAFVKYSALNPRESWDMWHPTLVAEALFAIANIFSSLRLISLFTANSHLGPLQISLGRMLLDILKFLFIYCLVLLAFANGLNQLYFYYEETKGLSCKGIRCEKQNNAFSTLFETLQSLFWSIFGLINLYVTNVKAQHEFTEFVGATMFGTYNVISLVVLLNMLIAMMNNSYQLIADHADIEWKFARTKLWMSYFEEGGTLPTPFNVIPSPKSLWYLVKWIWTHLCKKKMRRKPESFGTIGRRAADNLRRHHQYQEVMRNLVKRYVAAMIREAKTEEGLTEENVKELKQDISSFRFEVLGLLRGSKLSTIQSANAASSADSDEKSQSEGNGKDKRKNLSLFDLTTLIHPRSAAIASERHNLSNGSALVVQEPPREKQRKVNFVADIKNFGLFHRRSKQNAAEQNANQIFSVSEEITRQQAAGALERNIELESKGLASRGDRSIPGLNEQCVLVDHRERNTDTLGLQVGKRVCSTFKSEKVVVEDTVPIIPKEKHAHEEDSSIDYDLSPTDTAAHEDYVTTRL

[2] = HIV-1 Vif–A3G interaction blockers – biochemical, TR-FRET, GST-Vif 1-94, biotin-A3G peptide, dose response retest, primary screen (AID 1117319); assay type: functional;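 also: TR-FRET signal of purified GST-Vif binding a biotinylated A3G peptide; inhibitors lower the FRET signal by blocking Vif and A3G binding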
[3] = HEK-293T cell viability reduction – luminescence, B-cell screen hits, cytotoxicity control for BCR NF-kB inhibitor project, dose response (AID 489021); assay type: functional, cell-based;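 also: HEK-293T cells carrying an NF-kB luciferase reporter; cells exposed to compound for about 14 hours before viability readout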
[4] = DRD fibroblast viability loss – cell-based, non-viral oncogenic, luminescence, dose response (AID 1934); assay type: functional; details: Homo sapiens
[5] = tested on: BJ; assay: cells; assay type: functional, cell-based; details: Homo sapiens
[6] = alpha-synuclein stem-loop luciferase translation blockers – H4 neuroglioma cells, luminescence, confirmation (AID 1988); assay type: functional, cell-based
[7] = tested on: BJ; assay: BJ-TERT fibroblast viability loss – cell-based, RAS-independent, luminescence, dose response (AID 1933); assay type: functional; details: Homo sapiens
[8] = tested on: BJ; assay: BJ-TERT-LT-ST fibroblast viability loss – cell-based, RAS-independent, luminescence, dose response (AID 1935); assay type: functional; details: Homo sapiens;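 also: BJ fibroblasts immortalized with TERT plus LT and ST oncogenes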
[9] = Luminescence Cell-Based Dose Response HTS to Identify Inhibitors of 5'UTR Stem-Loop Driven Prion Protein mRNA Translation in H4 Neuroglioblastoma Cells. [Related pubchem assays: 1827 (Project Summary), 1813 (Primary HTS)]; assay type: functional
[10] = luciferase reporter signal suppression in cells – H4 neuroglioma cells, luminescence, dose response (AID 1990); assay type: functional, cell-based
[11] = viability loss in THP-1 monocytes – THP-1 cells, cytotoxicity control for Vif-APOBEC3G degradation inhibitor project, dose response (AID 1117359); assay type: functional; details: THP-1
[12] = general cell-killing toxicity readout – plate reader, dry powder samples, cytotoxicity control for PAX8 inhibitor project, dose response (AID 743021); assay type: functional, cell-based
[13] = biological target: Paired box protein Pax-8 (Homo sapiens, UniProt Q06710); assay: PAX8 transcriptional activity inhibition in RMG-I – RMG-I cells, luciferase, cherry-pick, dose response (AID 687027); assay type: functional, cell-based;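 also: luciferase reporter driven by Pax8 target thyroperoxidase promoter measured by SteadyGlo luminescence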
[14] = biological target: T2, Heat shock factor protein 1 (Mus musculus, UniProt P38532); assay: decrease of HSF1-responsive luciferase luminescence – cell-based, NIH3T3, dose retest, confirmation (AID 2382); assay type: functional;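 also: NIH3T3 fibroblasts with HSF1-driven luciferase reporter stressed by proteasome inhibitor MG132; luminescence from HSF1-driven luciferase expression after 8 hours of MG132 stress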
T2 sequence (P38532 whole entry): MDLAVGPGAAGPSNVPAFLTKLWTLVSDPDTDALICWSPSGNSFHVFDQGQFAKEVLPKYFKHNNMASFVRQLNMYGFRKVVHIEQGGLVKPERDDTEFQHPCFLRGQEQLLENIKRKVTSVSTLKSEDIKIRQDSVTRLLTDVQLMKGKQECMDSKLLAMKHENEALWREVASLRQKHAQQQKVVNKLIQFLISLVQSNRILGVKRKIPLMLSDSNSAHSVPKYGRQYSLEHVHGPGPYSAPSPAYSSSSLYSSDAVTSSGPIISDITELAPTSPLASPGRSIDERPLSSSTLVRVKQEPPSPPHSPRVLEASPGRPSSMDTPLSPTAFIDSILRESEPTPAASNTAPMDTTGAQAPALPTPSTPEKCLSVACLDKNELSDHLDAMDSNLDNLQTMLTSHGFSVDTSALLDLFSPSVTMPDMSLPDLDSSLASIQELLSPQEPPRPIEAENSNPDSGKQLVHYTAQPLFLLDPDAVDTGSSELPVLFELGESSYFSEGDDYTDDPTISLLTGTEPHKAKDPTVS

[15] = tested on: HEK293; assay: EBV LMP1 TES2 canonical NF-kB signalling blockers – cell-based, HEK293, luciferase, cherry-pick, dose response (AID 588343); assay type: functional; details: Homo sapiens
[16] = OVCAR8 cell viability loss – plate reader, dry powder samples, PAX8 project, dose response (AID 743197); assay type: functional, cell-based; details: OVCAR-8
[17] = OVCAR-3 cell viability loss – plate reader, dry powder samples, PAX8 inhibitor project, dose response (AID 743044); assay type: functional, cell-based
[18] = P. falciparum Dd2 growth inhibitors, dose response, SYBR Green, cherry-picked samples (AID 1159567); assay type: functional, cell-based

Chain of Paired box protein Pax-8 (Q06710 whole entry): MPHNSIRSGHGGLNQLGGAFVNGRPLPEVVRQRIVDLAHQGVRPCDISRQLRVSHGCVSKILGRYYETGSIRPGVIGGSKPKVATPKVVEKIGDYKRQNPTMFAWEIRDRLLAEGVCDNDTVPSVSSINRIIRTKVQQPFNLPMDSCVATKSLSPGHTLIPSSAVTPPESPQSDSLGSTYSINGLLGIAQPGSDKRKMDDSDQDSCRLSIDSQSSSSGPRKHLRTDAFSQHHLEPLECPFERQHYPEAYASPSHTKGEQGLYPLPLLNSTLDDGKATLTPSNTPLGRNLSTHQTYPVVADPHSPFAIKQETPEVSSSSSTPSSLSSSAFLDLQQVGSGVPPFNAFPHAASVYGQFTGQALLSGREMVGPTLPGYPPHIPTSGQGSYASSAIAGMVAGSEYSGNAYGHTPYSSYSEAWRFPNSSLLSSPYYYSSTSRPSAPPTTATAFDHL

For OCCNCc1cc(Br)ccc1OCc1ccc(Cl)cc1Cl, the EC50 [1] was 3.35 µM (active).
With COc1ccc(-c2[nH]c(-c3ccc(C)cc3)nc2SCC(=O)NCc2ccco2)cc1OC the IC50 [2] was > 100 µM (active).
For CCCOc1ccc(NC(=O)C(=O)NCCCn2ccnc2)cc1, the IC50 [3] was > 80 µM (inactive).
For COc1ccc(S(=O)(=O)Nc2cc3c(C(C)=O)c(C)oc3c3ccccc23)cc1, the EC50 [4] was 1.91 µM (active), the EC50 [5] was 4.49 µM (active) and the EC50 [6] was 0.294 µM (active). For the same compound, the EC50 [7] was 1.59 µM (active), the EC50 [8] was 1.26 µM (active) and the EC50 [9] was 2.67 µM (active). The IC50 [3] was > 80 µM (inactive) and the EC50 [10] was 2.35 µM (active).
In the case of O=C1NC(=O)N(Cc2ccco2)C(=O)/C1=C/NCc1ccc2c(c1)OCO2, the IC50 [2] is reported as > 100 µM (active).
With O=C(CSc1nnnn1-c1ccc2c(c1)CCC2)Nc1ccc2c(c1)OCCO2 the CC50 [11] was > 40 µM (active).
With COC(=O)C1=C(SC)N(c2ccccc2)C(c2ccccc2)CC1=O (configuration not stated) the AC50 [12] was 62 µM (active) and the AC50 [13] was 54.1 µM (active).
For Cc1nn(C(C)(C)C)c(C)c1/C=N/OC(=O)Nc1ccc(Cl)c(Cl)c1, the EC50 [14] was < 0.16 µM (active), the AC50 [15] was 0.839 µM (active) and the IC50 [3] was > 80 µM (inactive).
With C[C@@H]1CN([C@H](C)CO)C(=O)c2cc(NC(=O)Nc3ccc(F)cc3)ccc2O[C@@H](C)CCCCO[C@@H]1CN(C)Cc1ccc(Cl)c(Cl)c1 the AC50 [16] was 38.7 µM (active), the AC50 [13] was 8.1 µM (active) and the AC50 [17] was 20 µM (active).
For COc1ccc(/N=c2\scc(-c3ccc(OC)cc3)n2CCO)cc1, the IC50 [2] was > 100 µM (active) and the CC50 [11] was 28.5 µM (active).
In the case of O=S(=O)(c1ccccc1)N1CC[C@@H]2[C@H](CO)Nc3ccc(C#CC4CCCCC4)cc3[C@@H]21, the AC50 [18] is reported as 6.42 µM (active).
In the case of O=C(c1cnccn1)N1CC(=O)N2[C@@H](CO)[C@@H](c3ccc(C#CCc4ccccc4)cc3)[C@@H]2C1, the AC50 [18] is reported as 15.7 µM (active).
In the case of CO[C@@H]1CN(C)C(=O)c2ccc(NC(=O)Nc3cc(Cl)cc(Cl)c3)cc2OC[C@H](C)NC[C@H]1C, the AC50 [18] is reported as 6.54 µM (active).
For C[C@H](CO)N1C[C@H](C)[C@H](CN(C)S(=O)(=O)c2ccccc2)Oc2cc(C#Cc3ccncc3)ccc2S1(=O)=O, the AC50 [18] was 6.63 µM (active).
